Data from ChEMBL document CHEMBL1156824, “Physicochemical space for optimum oral bioavailability: contribution of human intestinal absorption and first-pass elimination” (J Med Chem, 2010).

Tests used:
Homo sapiens = species on record: Homo sapiens; assay: Hepatic clearance in human; details: in vivo
clinical = details: human, in vivo

SMILES	CL (Homo sapiens) [mL/min/kg]	CL renal (clinical) [mL/min/kg]
Cc1nccn1CC1CCc2c(c3ccccc3n2C)C1=O (stereo not given) [ONDANSETRON]	5.5	0.3
O=P1(NCCCl)OCCCN1CCCl (stereo not given) [IFOSFAMIDE]	0.5	0.6
NS(=O)(=O)c1cc2c(cc1C(F)(F)F)NCNS2(=O)=O [HYDROFLUMETHIAZIDE]	0.7	9
CCCCN1CCCCC1C(=O)Nc1c(C)cccc1C (stereo not given) [BUPIVACAINE]	4.2	0.1
O=c1[nH]c2ccccc2n1CCCN1CCC(n2c(=O)[nH]c3cc(Cl)ccc32)CC1 [DOMPERIDONE]	9.5	0.038
CCC1=C(C)CN(C(=O)NCCc2ccc(S(=O)(=O)NC(=O)N[C@H]3CC[C@H](C)CC3)cc2)C1=O [GLIMEPIRIDE]	0.5	0.002
CN(C)C(=O)Oc1cccc([N+](C)(C)C)c1.[Br-] [NEOSTIGMINE BROMIDE]	3.8	5.4
O=c1n(CCCN2CCN(c3cccc(Cl)c3)CC2)nc2ccccn12 [TRAZODONE]	1.4	0.0018
C[C@H]([C@](O)(Cn1cncn1)c1ccc(F)cc1F)S(C)(=O)=O [GENACONAZOLE]	0.038	0.2
OC(CCN1CCCC1)(c1ccccc1)C1CCCCC1 (stereo not given) [PROCYCLIDINE]	0.8	0.043
CNCC[C@@H](Oc1ccccc1C)c1ccccc1 [ATOMOXETINE]	9	0.3
O=C(O)CCCc1ccc(N(CCCl)CCCl)cc1 [CHLORAMBUCIL]	2.8	0.028
COc1cc2nc(N3CCN(C(=O)C4CCCO4)CC3)nc(N)c2cc1OC (stereo not given) [TERAZOSIN]	1	0.1
CC[C@H]1OC(=O)[C@H](C)[C@@H](O[C@H]2C[C@@](C)(OC)[C@@H](O)[C@H](C)O2)[C@H](C)[C@@H](O[C@@H]2O[C@H](C)C[C@H](N(C)C)[C@H]2O)[C@](C)(OC)C[C@@H](C)C(=O)[C@H](C)[C@@H](O)[C@]1(C)O [CLARITHROMYCIN]	4.7	2.6
CCN1CC(CCN2CCOCC2)C(c2ccccc2)(c2ccccc2)C1=O (stereo not given) [DOXAPRAM]	5	0.3
CC(C)(C)NC(=O)[C@H]1CC[C@H]2[C@@H]3CC[C@H]4NC(=O)C=C[C@]4(C)[C@H]3CC[C@]12C [FINASTERIDE]		0.024
COc1ccc([C@]2(C#N)CC[C@@H](C(=O)O)CC2)cc1OC1CCCC1 [CILOMILAST]	0.5	0.005
Cc1ccnc2c1NC(=O)c1cccnc1N2C1CC1 [NEVIRAPINE]	0.3	0.0069
Cc1cccc(Nc2ccncc2S(=O)(=O)NC(=O)NC(C)C)c1 [TORSEMIDE]	0.4	0.1
CC(C)(O)c1ccccc1CC[C@@H](SCC1(CC(=O)O)CC1)c1cccc(/C=C/c2ccc3ccc(Cl)cc3n2)c1 [MONTELUKAST]	0.7	0.0014
CC1=NS(=O)(=O)c2cc(Cl)ccc2N1 [DIAZOXIDE]		0.1
C[C@H]1c2cccc(O)c2C(=O)C2=C(O)[C@]3(O)C(=O)C(C(N)=O)=C(O)[C@@H](N(C)C)[C@@H]3[C@@H](O)[C@@H]21.O [DOXYCYCLINE]	0.3	0.2
CN(C)CCC(c1ccc(Cl)cc1)c1ccccn1 (stereo not given) [CHLORPHENIRAMINE]	2.1	0.4

SMILES	CL (Homo sapiens) [mL/min/kg]	CL renal (clinical) [mL/min/kg]
NS(=O)(=O)c1cc(C2(O)NC(=O)c3ccccc32)ccc1Cl (stereo not given) [CHLORTHALIDONE]	0.5	1
O=C(N[C@H](CO)[C@H](O)c1ccc([N+](=O)[O-])cc1)C(Cl)Cl [CHLORAMPHENICOL]	2.2	0.2
Cc1cc(=O)n(-c2ccccc2)n1C [ANTIPYRINE]	0.6	0.0243
Cc1ccsc1C(=CCCN1CCC[C@@H](C(=O)O)C1)c1sccc1C [TIAGABINE]	1.6	0.032
CCCC(CCC)C(=O)O [VALPROIC ACID]		0.0029
CCCCCN(CCCOC)C(=O)[C@@H](CCC(=O)O)NC(=O)c1ccc(Cl)c(Cl)c1 [DEXLOXIGLUMIDE]	3.3	0.4
CCO[C@@H](Cc1ccc(OCCc2ccc(OS(C)(=O)=O)cc2)cc1)C(=O)O [TESAGLITAZAR]	0.032	0.007
C[C@H]1O[C@H](O[C@H]2[C@H](O)[C@@H](O)[C@@H](O[C@H]3[C@H](O)[C@@H](O)C(O)O[C@@H]3CO)O[C@@H]2CO)[C@H](O)[C@@H](O)[C@@H]1N[C@H]1C=C(CO)[C@@H](O)[C@H](O)[C@H]1O (stereo not given in full) [ACARBOSE]	0.1	2.1
Cc1ccc(C(=O)Nc2ccc(S(=O)(=O)O)c3cc(S(=O)(=O)O)cc(S(=O)(=O)O)c23)cc1NC(=O)c1cccc(NC(=O)Nc2cccc(C(=O)Nc3cc(C(=O)Nc4ccc(S(=O)(=O)O)c5cc(S(=O)(=O)O)cc(S(=O)(=O)O)c45)ccc3C)c2)c1 [SURAMIN]	0.0011	0.0046
O=C1CN=C(c2ccccc2)c2cc([N+](=O)[O-])ccc2N1 [NITRAZEPAM]	0.9	0.0086
CCC[C@@H]1C[C@@H](C(=O)N[C@@H]([C@H]2O[C@H](SC)[C@H](O)[C@@H](O)[C@H]2O)[C@H](C)Cl)N(C)C1 [CLINDAMYCIN]	3.9	0.6
CN(C)CCC=C1c2ccccc2CCc2ccccc21 [AMITRIPTYLINE]	6	0.1
CN1C(=O)CC[C@H]1c1cccnc1 [COTININE]	0.8	0.1
O=C1CN=C(c2ccccn2)c2cc(Br)ccc2N1 [BROMAZEPAM]	0.3	0.3
O=C(NCCN1CCOCC1)c1ccc(Cl)cc1 [MOCLOBEMIDE]	10	0.1
Cn1c(=O)c2c(ncn2C)n(C)c1=O [CAFFEINE]	1.4	0.017
CCN1CCC[C@H]1CNC(=O)c1c(OC)ccc(Br)c1OC [REMOXIPRIDE]	1.3	0.4
NC(=O)NO [HYDROXYUREA]	1	0.5
CCCCCNC(=N)N/N=C/c1c[nH]c2ccc(OC)cc12 [TEGASEROD]	17.6	0.4
NC(=O)CN1CC(O)CC1=O (stereo not given) [OXIRACETAM]	0.1	1.7
CCCCNc1cc(C(=O)O)cc(S(N)(=O)=O)c1Oc1ccccc1 [BUMETANIDE]	1	1.5
CCOC(=O)Nc1ccc(NCc2ccc(F)cc2)nc1N [FLUPIRTINE]	1.3	0.3
Cn1c(=O)c2c(ncn2CC(O)CO)n(C)c1=O (stereo not given) [DYPHYLLINE]	0.8	4

SMILES	CL (Homo sapiens) [mL/min/kg]	CL renal (clinical) [mL/min/kg]
CC1CCCC(C)N1CCCC(O)(c1ccccc1)c1ccccn1 (stereo not given) [PIRMENOL]	1.1	0.7
C[C@@H]1C[C@H]2[C@@H]3CCC4=CC(=O)C=C[C@]4(C)[C@@]3(F)[C@@H](O)C[C@]2(C)[C@@]1(O)C(=O)CO [DEXAMETHASONE]	3.2	0.1
CCCNC(=O)NS(=O)(=O)c1ccc(Cl)cc1 [CHLORPROPAMIDE]	0.036	0.009
COc1cccc(C2(O)CCCCC2CN(C)C)c1 (stereo not given) [TRAMADOL]	5.5	1
C[C@@H]1C(=O)O[C@H]2C[C@@]34[C@H]5C[C@@H](C(C)(C)C)[C@]36[C@@H](OC(=O)[C@@H]6O)O[C@@]4(C(=O)O5)[C@]21O [GINKGOLIDE A]	0.7	1.7
O=C1CN=C(c2ccccc2Cl)c2cc([N+](=O)[O-])ccc2N1 [CLONAZEPAM]	0.9	0.0088
CN(C)CCCN1c2ccccc2Sc2ccc(Cl)cc21 [CHLORPROMAZINE]	15.8	0.2
OC(Cn1cncn1)(Cn1cncn1)c1ccc(F)cc1F [FLUCONAZOLE]	0.1	0.2
CCS(=O)(=O)CCn1c([N+](=O)[O-])cnc1C [TINIDAZOLE]	0.5	0.1
Cn1c(=O)c2[nH]cnc2n(C)c1=O.O [THEOPHYLLINE]	0.8	0.1
CC(=O)CC(c1ccccc1)c1c(O)c2ccccc2oc1=O (stereo not given) [WARFARIN]	0.1	0.0011
COCCc1ccc(OCC(O)CNC(C)C)cc1 (stereo not given) [METOPROLOL]	12.4	0.7
C=CCN1CCCC1CNC(=O)c1cc2[nH]nnc2cc1OC (stereo not given) [ALIZAPRIDE]	1.3	5.3
CC(CC(c1ccccc1)c1ccccc1)NC(C)(C)C (stereo not given) [TERODILINE]	1	0.1
COc1ccccc1N1CCN(CCCNc2cc(=O)n(C)c(=O)n2C)CC1	2.6	0.5
CCOC(=O)c1ncn2c1CN(C)C(=O)c1cc(F)ccc1-2 [FLUMAZENIL]	16	0.032
COC(=O)Nc1nc2ccc(C(=O)c3ccccc3)cc2[nH]1 [MEBENDAZOLE]	14.8	0.2
CN(C)CCCC1(c2ccc(F)cc2)OCc2cc(C#N)ccc21 (stereo not given) [CITALOPRAM]	3.8	0.5
c1ccc(C2(N3CCCCC3)CCCCC2)cc1 [PHENCYCLIDINE]	4.3	0.8
Cc1nnc(SCC2=C(C(=O)O)N3C(=O)[C@@H](NC(=O)[C@H](O)c4ccccc4)[C@H]3SC2)s1	0.2	2.4
CN1CCN2c3ncccc3Cc3ccccc3C2C1 (stereo not given) [MIRTAZAPINE]	7.7	0.3
CN(C(=O)c1c(O)c2ccccc2n(C)c1=O)c1ccccc1 [ROQUINIMEX]	0.1	0.0008
CS(=O)(=O)OCCCCOS(C)(=O)=O [BUSULFAN]	2.4	0.024
